In PMC11990670, “Exploring the Volatility, Phase Transitions, and Solubility Properties of Five Halogenated Benzaldehydes” (Molecules, 2025):
≈ marks a conversion by molar mass, not a printed value. Marks after values point to notes of the source that are not given here.

Assays:
[1] = Vapor pressures of crystalline and liquid phases, static method with capacitance diaphragm gauge; type: physicochemical
Excerpt: A previously described and tested static apparatus was used to measure the vapor pressures of the condensed phases (both crystalline and liquid) of the five compounds studied. This installation employs MKS capacitance diaphragm absolute gauges, operating at self-regulated constant temperatures. Our lab is equipped with three pressure gauges. Gauge I, a Baratron 631A01TBEH (MKS instruments, Andover, MA, USA) (Tgauge = 423 K), measures pressures in the range of 0.5 to 1.3 × 10^2 Pa and operates within a temperature range of 253 to 413 K. Gauge II, the instrument used in this study, is a Baratron 631A11TBFP (MKS instruments, Andover, MA, USA) (Tgauge = 473 K), capable of measuring pressures from 0.5 to 1.3 × 10^3 Pa within a temperature range of 253 to 433 K and gauge III, a Baratron 631D02T8FP (MKS instruments, Andover, MA, USA) (Tgauge = 473 K), designed to measure pressures between 0.5 Pa and 2.6 × 10^2 Pa, also within a temperature range of 253 to 433 K. The temperatures of the samples were measured using a Pt100 platinum resistance thermometer, calibrated by comparison with a standard platinum resistance thermometer (SPRT: Tinsley Precision Instruments Ltd, London, England). To prevent vapor condensation, the tubing connecting the cell containing the condensed sample to the pressure gauge is maintained at a temperature higher than that of the sample but lower than that of the gauge. The uncertainty in temperature measurements is estimated to be u(T/K) = ±0.01, and the expanded uncertainties (0.95 confidence level, k = 2) in pressure measurements are given by the expression U(p/Pa) = 0.1 + 0.0050 (p/Pa) for the gauge used. Samples were thoroughly degassed before starting the vapor pressure measurements, ensuring consistent readings at specific temperatures and eliminating any residual volatile substances, including water.

[2] = pH of the saturated aqueous solutions; type: physicochemical; details: saturated aqueous solution of the solubility experiment
Experimental: (§1) The concentration was measured by absorbances at 260 nm for 4-chlorobenzaldehyde, 263 nm for 4-bromobenzaldehyde and 2,4-dichlorobenzaldehyde, 297 nm for 2,6-dichlorobenzaldehyde, and 306 nm for 2,3-dichlorobenzaldehyde, using a Cary-60 UV–vis (Agilent) spectrophotometer. X-ray diffraction (XRD) and differential scanning calorimetry of residual solids were used to identify the eventual phase transformations. The purified samples of each compound studied were used for all experimental determinations, including the solubility measurements. After reaching the equilibrium, the residual solid was dried and analyzed using both DSC and XRD. The melting properties obtained from DSC were compared with those of the original purified sample, following the same procedure for the XRD analysis. […] As an example, the supporting information includes two thermograms and two XRD patterns for 2,4-dichlorobenzaldehyde (Figures S1 and S2). […] Equation (4) was derived from Equation (5), which is widely applicable to the solubility of solids.(4) ΔhydrGm°/kJ·mol^−1=9.17−5.71·log10(Scr/mol·m^−3)−ΔcrgGm°/kJ·mol^−1 (5) S=p^°/RTexpΔcrgGm°+ΔhydrGm°/−RT
(§2) An excess amount of each compound was added to a known volume of water in triplicate. […] After stirring, the solid phase was allowed to settle for 2 h. The pH of the saturated solutions was measured using a Mettler Toledo (Greifensee, Switzerland) FiveEasy F20 pH Meter calibrated with standard aqueous solutions (pH 7.00 and 4.01 or 10.1). Those solutions were then filtered through a 0.22 μm syringe hydrophilic filter (13 mm, PTFE, Labfil, Zhejiang, China) and diluted to the required concentration. The concentration of the compounds, expressed in molarity, was measured by absorbances using a Cary-60 UV–vis spectrophotometer (Agilent Technologies, Santa Clara, CA, USA) at 298.15 K (single cell Peltier accessory, ±0.15 K). The results reported in Table 6 are averaged from at least three replicates. Calibration was performed using solutions of known concentrations of each substance in water. These solutions were prepared by adding a precise mass of the substance and a specific volume of the solvent to a flask, then mixing until the substance was fully dissolved. The absorbance of these solutions was measured, and calibration curves were created.

[3] = Equilibrium solubility in water, saturation shake-flask method with UV-vis; details: 25 °C, thermodynamic from solid
Experimental: as §1, §2

[4] = Gibbs energy of hydration and Henry's law volatility constant calculated from sublimation and solubility data; details: 25 °C
Experimental: as §1
The standard states in Equation (5) are p° = 1 × 10^5 Pa for ΔcrgGm° , c° = 1 mol·L^−1 for ΔhydrGm° and s° = 1 mol·m^−3 for solubility. Using the experimental results of ΔhydrGm° , calculated through Equation (4), the values of Henry’s law volatility constants, KHpc, were determined in the logarithm form by Equation (6), that was adapted from Modarressi et al..

## O=Cc1ccc(Cl)cc1Cl [2,4-Dichlorobenzaldehyde]
[1]; crystalline phase, T = 285.78 K
  vapor pressure p: 0.64 Pa
[1]; crystalline phase, T = 287.68 K
  vapor pressure p: 0.80 Pa
[1]; crystalline phase, T = 289.73 K
  vapor pressure p: 1.02 Pa
[1]; crystalline phase, T = 291.36 K
  vapor pressure p: 1.23 Pa
[1]; crystalline phase, T = 293.15 K
  vapor pressure p: 1.50 Pa
[1]; crystalline phase, T = 294.83 K
  vapor pressure p: 1.81 Pa
[1]; crystalline phase, T = 296.85 K
  vapor pressure p: 2.29 Pa
[1]; crystalline phase, T = 298.81 K
  vapor pressure p: 2.85 Pa
[1]; crystalline phase, T = 301.19 K
  vapor pressure p: 3.67 Pa
[1]; crystalline phase, T = 303.16 K
  vapor pressure p: 4.55 Pa
[1]; crystalline phase, T = 305.23 K
  vapor pressure p: 5.65 Pa
[1]; crystalline phase, T = 307.12 K
  vapor pressure p: 6.86 Pa
[1]; crystalline phase, T = 308.88 K
  vapor pressure p: 8.29 Pa
[1]; crystalline phase, T = 310.95 K
  vapor pressure p: 10.12 Pa
[1]; crystalline phase, T = 313.23 K
  vapor pressure p: 12.78 Pa
[1]; crystalline phase, T = 315.25 K
  vapor pressure p: 15.58 Pa
[1]; crystalline phase, T = 317.80 K
  vapor pressure p: 20.05 Pa
[1]; crystalline phase, T = 320.56 K
  vapor pressure p: 26.18 Pa
[1]; crystalline phase, T = 322.93 K
  vapor pressure p: 32.84 Pa
[1]; crystalline phase, T = 325.24 K
  vapor pressure p: 40.77 Pa
[1]; crystalline phase, T = 327.66 K
  vapor pressure p: 50.25 Pa
[1]; crystalline phase, T = 329.75 K
  vapor pressure p: 60.90 Pa
[1]; crystalline phase, T = 331.73 K
  vapor pressure p: 72.78 Pa
[1]; crystalline phase, T = 333.66 K
  vapor pressure p: 85.89 Pa
[1]; crystalline phase, T = 335.72 K
  vapor pressure p: 102.0 Pa
[1]; crystalline phase, T = 337.64 K
  vapor pressure p: 119.1 Pa
[1]; crystalline phase, T = 339.73 K
  vapor pressure p: 141.9 Pa
[1]; crystalline phase, T = 341.66 K
  vapor pressure p: 166.2 Pa
[1]; liquid phase, T = 344.36 K
  vapor pressure p: 207.6 Pa
[1]; liquid phase, T = 346.33 K
  vapor pressure p: 233.6 Pa
[1]; liquid phase, T = 348.33 K
  vapor pressure p: 261.6 Pa
[1]; liquid phase, T = 349.66 K
  vapor pressure p: 282.0 Pa
[1]; liquid phase, T = 351.41 K
  vapor pressure p: 310.8 Pa
[1]; liquid phase, T = 353.17 K
  vapor pressure p: 342.8 Pa
[1]; liquid phase, T = 355.39 K
  vapor pressure p: 390.3 Pa
[1]; liquid phase, T = 357.59 K
  vapor pressure p: 437.4 Pa
[1]; liquid phase, T = 359.46 K
  vapor pressure p: 479.4 Pa
[1]; liquid phase, T = 361.34 K
  vapor pressure p: 533.0 Pa
[1]; liquid phase, T = 363.54 K
  vapor pressure p: 603.2 Pa
[1]; liquid phase, T = 365.63 K
  vapor pressure p: 668.2 Pa
[1]; liquid phase, T = 367.44 K
  vapor pressure p: 733.6 Pa
[1]; liquid phase, T = 369.34 K
  vapor pressure p: 810.6 Pa
[1]; liquid phase, T = 371.29 K
  vapor pressure p: 885.4 Pa
[1]; liquid phase, T = 373.62 K
  vapor pressure p: 998.4 Pa
[1]; liquid phase, T = 375.74 K
  vapor pressure p: 1100 Pa
[1]; supercooled liquid, T = 324.34 K
  vapor pressure p: 57.72 ^d Pa
[1]; supercooled liquid, T = 326.40 K
  vapor pressure p: 66.54 ^d Pa
[1]; supercooled liquid, T = 328.22 K
  vapor pressure p: 75.25 ^d Pa
[1]; supercooled liquid, T = 330.22 K
  vapor pressure p: 85.67 ^d Pa
[1]; supercooled liquid, T = 332.21 K
  vapor pressure p: 97.72 ^d Pa
[1]; supercooled liquid, T = 334.17 K
  vapor pressure p: 110.6 ^d Pa
[1]; supercooled liquid, T = 336.16 K
  vapor pressure p: 125.6 ^d Pa
[1]; supercooled liquid, T = 338.15 K
  vapor pressure p: 141.4 ^d Pa
[1]; supercooled liquid, T = 340.44 K
  vapor pressure p: 163.3 ^d Pa
[1]; supercooled liquid, T = 342.29 K
  vapor pressure p: 184.1 Pa
[2]
  pH of the saturated solution: 6.57
[3]
  solubility at 72 h: 821 µM (≈ 144 µg/mL)
[4]; calculated by Equation (4)
  Gibbs energy of hydration ΔhydrGm°: -3.94 kcal/mol
[4]; calculated by Equation (6)
  log10(KHpc/kPa·m^3·mol^−1) Henry's law volatility constant: −2.50
[4]; value is KHpc multiplied by 10^3
  KHpc×10^3 Henry's law volatility constant: 3.16 kPa·m^3·mol^−1
